Reference: US20230083973A1, “SUBSTITUTED CYCLOPROPYL-2,2'-BIP[…], ANALOGUES THEREOF, AND METHODS USING SAME” (priority 2019, published 2023)
pEC50: −log10 of the molar value. Read-outs that look alike come from different tables or passages of the source.

System: HBsAg
Assay: HBsAg assay: inhibition of HBsAg in HepG2.2.15 cells (chemiluminescence immunoassay of supernatant)
Assay type: cell-based, hepatitis B virus
Settings: HBsAg in supernatant at day 6 after exposure to compound, 0.5% DMSO
Method in brief: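 HepG2.2.15 cells treated with serially diluted compounds (0.5% DMSO), medium and compound refreshed after 2–3 days, supernatant harvested at day 6. Secreted HBsAg measured by chemiluminescence immunoassay; EC50 from dose-response curves, with parallel CellTiter-Glo viability at 5,000 cells/well.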

[1] = Hepatitis B virus, HepG2.2.15, 144 h, read-out: sAg EC50, HepG2.2.15 cells
[2] = read-out: sAg EC50, HepG2.2.15 cells

**Q.** How did the pEC50 [1] turn out when `CO[C@@H]1CCN(c2cc(C3CC3c3cnc(-c4ncccn4)nc3)cc(Cl)c2F)C1` (single isomer, unassigned) [Example 110] was run?
**A.** 6.72

**Q.** How did the pEC50 [2] turn out when `CO[C@@H]1CCN(c2cc(C3CC3c3cnc(-c4ncccn4)nc3)cc(Cl)c2F)C1` (single isomer, unassigned) [Example 111] was run?
**A.** 6.92

**Q.** With `COc1cc(F)cc(C2CC2c2cnc(-c3ncccn3)nc2)c1` (single isomer, unassigned) [Example 112, trans-5-(2-(3-Fluoro-5-methoxyphenyl)cyclopropyl)-2,2′-bipyrimidine] as the compound, how does the pEC50 [2] read?
**A.** 6.30

**Q.** How did the pEC50 [2] turn out when `COc1cc(F)cc(C2CC2c2cnc(-c3ncccn3)nc2)c1` (single isomer, unassigned) [Example 113, trans-5-(2-(3-Fluoro-5-methoxyphenyl)cyclopropyl)-2,2′-bipyrimidine] was run?
**A.** 7.59

**Q.** With `COc1c(Cl)ccc(C2CC2c2cnc(-c3ncccn3)nc2)c1OC` (single isomer, unassigned) [Example 114, trans-5-(2-(4-Chloro-2,3-dimethoxyphenyl)cyclopropyl)-2,2′-bipyrimidine] as the compound, how does the pEC50 [2] read?
**A.** 5.52

**Q.** With `COc1c(Cl)ccc(C2CC2c2cnc(-c3ncccn3)nc2)c1OC` (single isomer, unassigned) [Example 115, trans-5-(2-(4-Chloro-2,3-dimethoxyphenyl)cyclopropyl)-2,2′-bipyrimidine] as the compound, how does the pEC50 [2] read?
**A.** 6.49

**Q.** How did the pEC50 [2] turn out when `CO[C@H]1CCN(c2cc(C3CC3c3cnc(-c4ncccn4)nc3)cc(Cl)c2F)C1` (single isomer, unassigned) [Example 116] was run?
**A.** 7.05

**Q.** How did the pEC50 [2] turn out when `CO[C@H]1CCN(c2cc(C3CC3c3cnc(-c4ncccn4)nc3)cc(Cl)c2F)C1` (single isomer, unassigned) [Example 117] was run?
**A.** 7.96

**Q.** With `Fc1cc(Cl)cc(C2CC2c2cnc(-c3ncccn3)nc2)c1` (single isomer, unassigned) [Example 118, trans-5-(2-(3-Chloro-5-fluorophenyl)cyclopropyl)-2,2′-bipyrimidine] as the compound, how does the pEC50 [2] read?
**A.** 5.70

**Q.** With `Fc1cc(Cl)cc(C2CC2c2cnc(-c3ncccn3)nc2)c1` (single isomer, unassigned) [Example 119, trans-5-(2-(3-Chloro-5-fluorophenyl)cyclopropyl)-2,2′-bipyrimidine] as the compound, how does the pEC50 [2] read?
**A.** 6.48

**Q.** With `O[C@H]1CCN(c2cc(C3CC3c3cnc(-c4ncccn4)nc3)cc(Cl)c2F)C1` (single isomer, unassigned) [Example 120] as the compound, how does the pEC50 [2] read?
**A.** 7.00

**Q.** With `O[C@H]1CCN(c2cc(C3CC3c3cnc(-c4ncccn4)nc3)cc(Cl)c2F)C1` (single isomer, unassigned) [Example 121] as the compound, how does the pEC50 [2] read?
**A.** 7.96

**Q.** With `COC1CN(c2cc([C@@H]3C[C@H]3c3cnc(-c4ncccn4)nc3)cc(F)c2F)C1` (single isomer, unassigned) [Example 122, trans-5-(2-(3,4-difluoro-5-(3-methoxyazetidin-1-yl)phenyl)cyclopropyl)-2,2′-bipyrimidine] as the compound, how does the pEC50 [2] read?
**A.** 7.21

**Q.** `COC1CN(c2cc([C@@H]3C[C@H]3c3cnc(-c4ncccn4)nc3)cc(F)c2F)C1` (single isomer, unassigned) [Example 123, trans-5-(2-(3,4-Difluoro-5-(3-methoxyazetidin-1-yl)phenyl)cyclopropyl)-2,2′-bipyrimidine] was tested. Which pEC50 [2] did it give?
**A.** 7.92

**Q.** `COc1cc(C2CC2c2ccc(-c3ncccn3)nc2)cc(F)c1F` (single isomer, unassigned) [Example 124, trans-2-(5-(2-(3,4-Difluoro-5-methoxyphenyl)cyclopropyl)pyridin-2-yl)pyrimidine] was tested. Which pEC50 [2] did it give?
**A.** 6.54

**Q.** `COc1cc(C2CC2c2ccc(-c3ncccn3)nc2)cc(F)c1F` (single isomer, unassigned) [Example 125, trans-2-(5-(2-(3,4-Difluoro-5-methoxyphenyl)cyclopropyl)pyridin-2-yl)pyrimidine] was tested. Which pEC50 [2] did it give?
**A.** 8.40

**Q.** How did the pEC50 [1] turn out when `O[C@@H]1CCN(c2cc(C3CC3c3cnc(-c4ncccn4)nc3)cc(Cl)c2F)C1` (single isomer, unassigned) [Example 126] was run?
**A.** 6.92

**Q.** How did the pEC50 [2] turn out when `O[C@@H]1CCN(c2cc(C3CC3c3cnc(-c4ncccn4)nc3)cc(Cl)c2F)C1` (single isomer, unassigned) [Example 127] was run?
**A.** 6.96

**Q.** `Fc1cc(C2CC2c2cnc(-c3ncccn3)nc2)cc(OCC2CC2)c1F` (single isomer, unassigned) [Example 128, trans-5-(2-(3-(Cyclopropylmethoxy)-4,5-difluorophenyl)cyclopropyl)-2,2′-bipyrimidine] was tested. Which pEC50 [2] did it give?
**A.** 6.38

**Q.** How did the pEC50 [2] turn out when `Fc1cc(C2CC2c2cnc(-c3ncccn3)nc2)cc(OCC2CC2)c1F` (single isomer, unassigned) [Example 129, trans-5-(2-(3-(Cyclopropylmethoxy)-4,5-difluorophenyl)cyclopropyl)-2,2′-bipyrimidine] was run?
**A.** 7.74

**Q.** `COCCCOc1cc(C2CC2c2cnc(-c3ncccn3)nc2)cc(F)c1F` (single isomer, unassigned) [Example 130, trans-5-(2-(3,4-Difluoro-5-(3-methoxypropoxy)phenyl)cyclopropyl)-2,2′-bipyrimidine] was tested. Which pEC50 [2] did it give?
**A.** 6.59

**Q.** How did the pEC50 [2] turn out when `COCCCOc1cc(C2CC2c2cnc(-c3ncccn3)nc2)cc(F)c1F` (single isomer, unassigned) [Example 131, trans-5-(2-(3,4-Difluoro-5-(3-methoxypropoxy)phenyl)cyclopropyl)-2,2′-bipyrimidine] was run?
**A.** 7.82

**Q.** How did the pEC50 [1] turn out when `COc1c(Cl)ccc(C2CC2c2cnc(-c3ncccn3)nc2)c1Cl` (single isomer, unassigned) [Example 132, trans-5-(2-(2,4-Dichloro-3-methoxyphenyl)cyclopropyl)-2,2′-bipyrimidine] was run?
**A.** 6.92

**Q.** With `COc1c(Cl)ccc(C2CC2c2cnc(-c3ncccn3)nc2)c1Cl` (single isomer, unassigned) [Example 133, trans-5-(2-(2,4-Dichloro-3-methoxyphenyl)cyclopropyl)-2,2′-bipyrimidine] as the compound, how does the pEC50 [2] read?
**A.** 6.89

**Q.** How did the pEC50 [2] turn out when `COCCOc1cc(C2CC2c2cnc(-c3ncccn3)nc2)cc(F)c1F` (single isomer, unassigned) [Example 134, trans-5-(2-(3,4-Difluoro-5-(2-methoxyethoxy)phenyl)cyclopropyl)-2,2′-bipyrimidine] was run?
**A.** 6.52

**Q.** How did the pEC50 [2] turn out when `COCCOc1cc(C2CC2c2cnc(-c3ncccn3)nc2)cc(F)c1F` (single isomer, unassigned) [Example 135, trans-5-(2-(3,4-Difluoro-5-(2-methoxyethoxy)phenyl)cyclopropyl)-2,2′-bipyrimidine] was run?
**A.** 7.66

**Q.** `Fc1cc(C2CC2c2cnc(-c3ncccn3)nc2)cc(N2CC3(CCOCC3)C2)c1F` (single isomer, unassigned) [Example 136, trans-2-(5-(2-([2,2′-Bipyrimidin]-5-yl)cyclopropyl)-2,3-difluorophenyl)-7-oxa-2-azaspiro[3.5]nonane] was tested. Which pEC50 [2] did it give?
**A.** 6.04

**Q.** With `Fc1cc(C2CC2c2cnc(-c3ncccn3)nc2)cc(N2CC3(CCOCC3)C2)c1F` (single isomer, unassigned) [Example 137, trans-2-(5-(2-([2,2′-Bipyrimidin]-5-yl)cyclopropyl)-2,3-difluorophenyl)-7-oxa-2-azaspiro[3.5]nonane] as the compound, how does the pEC50 [2] read?
**A.** 7.13

**Q.** `CC1(C)CN(c2cc(C3CC3c3cnc(-c4ncccn4)nc3)cc(F)c2F)C1` (single isomer, unassigned) [Example 138, trans-5-(2-(3-(3,3-Dimethylazetidin-1-yl)-4,5-difluorophenyl)cyclopropyl)-2,2′-bipyrimidine] was tested. Which pEC50 [2] did it give?
**A.** 6.00
